{"source": "paper PMC4964461", "about": "“Synthesis and Evaluation of Tricarbonyl ^99mTc-Labeled 2-(4-Chloro)phenyl-imidazo[1,2-a]pyridine Analogs as Novel SPECT Imaging Radiotracer for TSPO-Rich Cancer” (International Journal of Molecular Sciences, 2016)", "target": "T1, 18-kDa translocator protein (TSPO) (Rattus norvegicus, UniProt P16257)", "T1 construct": "native TSPO in rat C6 glioma cell membranes", "experiment": "[3H]-PK […] radioligand displacement on C6 glioma membrane extracts", "type": "binding", "settings": "read-out: Ki (nM) for TSPO", "data": [{"smiles": "CCCN(CCC)C(=O)Cc1c(-c2ccc(Cl)cc2)nc2c(NC(=O)CN(Cc3ccccn3)Cc3ccccn3)cccn12", "note": "[compound 3]", "values": [{"measurement": "Ki", "value": "148 ± 11.3", "unit": "nM"}]}, {"smiles": "CCCN(CCC)C(=O)Cc1c(-c2ccc(Cl)cc2)nc2c(NC(=O)C[N+]34Cc5cccc[n+]5[Re-5]3([C]#[O+])([C]#[O+])([C]#[O+])[n+]3ccccc3C4)cccn12", "note": "(centres unmarked) [compound 2, Re-CB256]", "values": [{"measurement": "Ki", "value": "159 ± 8.7", "unit": "nM"}]}]}
